# From patent US9737523B2, “Anti-fibrogenic compounds, methods and uses thereof” (priority 2013, dated 2017)
# Experiments:
# [1] = test system: MEK-ERK1/2 signaling pathway; assay: Kynurenine-stimulated MMP-1 expression in dermal fibroblasts with MEK/ERK1/2 phosphorylation inhibitors; type: cell-based, human; settings: 100 μg/ml kynurenine
# Method: Cells were harvested by Trypsin/EDTA and lysed with cell lysis buffer containing 50 mM Tris-HCl (pH7.40), 150 mM NaCl, 10 mM EDTA, 5 mM EGTA, 1% TritonX-100™, 0.5% Igepal CA-630, 0.025% NaN3 and protease inhibitor cocktail (Sigma™). Cell debris was removed by centrifugation at 20,000×g for 10 minutes. The protein concentration in supernatant was determined using the MicroBCA™ method (Pierce™, Rockford, Ill.). Proteins in supernatant were mixed with protein sample loading buffer (final concentration: 60 mM Tris-HCl (pH 6.80), 2% SDS, 10% glycerol, 1.5% β-mercaptoethanol, 0.002% bromophenol blue) and size fractioned by 10% of SDS-polyacrylamide gel. After proteins were transferred onto nitrocellulose membrane by iBlot™ (Invitrogen Life Technologies™), non-specific binding were blocked with phosphate buffer saline twenty 20 (PBS-T) containing 5% skim milk for 1 hour. The membrane was then incubated with primary antibody overnight. After incubation with a secondary antibody for 1 hour, protein bands were visualized by an enhanced chemiluminescence (ECL™) detection system (Santa Cruz Biotechnology™, Santa Cruz, Calif.). […]
# MMP-1 = MMP-1 expression in human dermal fibroblasts, Western blot; type: cell-based
# Method: Cells were then harvested after 48 hours and western blot analysis was performed.
# Cells were harvested by Trypsin/EDTA and lysed with cell lysis buffer containing 50 mM Tris-HCl (pH7.40), 150 mM NaCl, 10 mM EDTA, 5 mM EGTA, 1% TritonX-100™, 0.5% Igepal CA-630, 0.025% NaN3 and protease inhibitor cocktail (Sigma™). Cell debris was removed by centrifugation at 20,000×g for 10 minutes. The protein concentration in supernatant was determined using the MicroBCA™ method (Pierce™, Rockford, Ill.). Proteins in supernatant were mixed with protein sample loading buffer (final concentration: 60 mM Tris-HCl (pH 6.80), 2% SDS, 10% glycerol, 1.5% β-mercaptoethanol, 0.002% bromophenol blue) and size fractioned by 10% of SDS-polyacrylamide gel. After proteins were transferred onto nitrocellulose membrane by iBlot™ (Invitrogen Life Technologies™), non-specific binding were blocked with phosphate buffer saline twenty 20 (PBS-T) containing 5% skim milk for 1 hour. The membrane was then incubated with primary antibody overnight. After incubation with a secondary antibody for 1 hour, protein bands were visualized by an enhanced chemiluminescence (ECL™) detection system (Santa Cruz Biotechnology™, Santa Cruz, Calif.). The primary antibodies used in this study were: mouse monoclonal anti-human MMP-1 (R&D Systems™, Minneapolis, Minn.), mouse monoclonal anti-human MMP-3 (R&D System™), rabbit monoclonal anti-human MMP-2 (Epitomics™, Burlingame, Calif.), rabbit polyclonal anti-phospho-MEK1/2 (Ser217/221™) (Cell Signaling Technology™, Danvers, Mass.), rabbit polyclonal anti-phospho-p44/42 MAPK (Thr202/Tyr204) (Cell Signaling Technology™), monoclonal anti-β-actin (Sigma™), and mouse anti-type-1 procollagen (Developmental Studies Hybridoma Bank™, Iowa City, Iowa). The secondary antibodies were either goat anti-mouse IgG (H+L) HPR conjugate or goat anti-rabbit IgG (H+L) HPR conjugate (Bio-rad Laboratory™ (Mississauga, ON, Canada). Secondary antibodies were used at a concentration of 1:3000.
# type 1 procollagen = assay: Type 1 procollagen expression in dermal fibroblasts, Western blot; type: cell-based, human; settings: kynurenine analogues/metabolites, FIG. 10 bottom
# Method: (§1) Cell debris was removed by centrifugation at 20,000×g for 10 minutes. The protein concentration in supernatant was determined using the MicroBCA™ method (Pierce™, Rockford, Ill.). Proteins in supernatant were mixed with protein sample loading buffer (final concentration: 60 mM Tris-HCl (pH 6.80), 2% SDS, 10% glycerol, 1.5% β-mercaptoethanol, 0.002% bromophenol blue) and size fractioned by 10% of SDS-polyacrylamide gel. After proteins were transferred onto nitrocellulose membrane by iBlot™ (Invitrogen Life Technologies™), non-specific binding were blocked with phosphate buffer saline twenty 20 (PBS-T) containing 5% skim milk for 1 hour. The membrane was then incubated with primary antibody overnight. After incubation with a secondary antibody for 1 hour, protein bands were visualized by an enhanced chemiluminescence (ECL™) detection system (Santa Cruz Biotechnology™, Santa Cruz, Calif.). […] The secondary antibodies were either goat anti-mouse IgG (H+L) HPR conjugate or goat anti-rabbit IgG (H+L) HPR conjugate (Bio-rad Laboratory™ (Mississauga, ON, Canada). Secondary antibodies were used at a concentration of 1:3000.
# MMP-3 = MMP-3 expression in human dermal fibroblasts, Western blot; type: cell-based
# Method: Cells were then harvested by trypsinization and western blot analysis was performed.
# as §1
# splenocytes = assay: ConA-induced splenocyte proliferation; type: cell-based; settings: for reduction in conA-induced splenocyte proliferation: 100 and 150 μg/ml
# fibronectin = assay: Fibronectin mRNA in human dermal fibroblasts, real-time PCR; type: cell-based; settings: various concentration
# [2] = kynurenine isoforms, 50 μg/ml, 48 hours
compound,measurement,setting,value
N#CC(=C(/N)Sc1ccccc1N)/C(C#N)=C(\N)Sc1ccccc1N [U0126],effect on up-regulation of MMP-1 expression by kynurenine,[1]; to M and 30 μM of U0126,significantly reduced
"N[C@@H](Cc1c[nH]c2ccccc12)C(=O)O [tryptophan, reference compound]","MMP-1 expression, presence of tryptophan versus tryptophan-depleted media","MMP-1; 25 μg/ml tryptophan, 48 hrs",no significant difference
same,MMP-1 expression,"MMP-1; various concentration of tryptophan, 48 hours",failed to increase
O=C(O)c1cc(=O)c2ccccc2[nH]1 [kynurenic acid],expression of type 1 procollagen,type 1 procollagen,effective at inhibiting
same,MMP-3 induction (general statement),MMP-3,induce
same,MMP-1 induction (general statement),MMP-1,induce
same,MMP1 protein expression 48 hours after treatment removal,"MMP-1; 100 μg/ml for 48 hours, then 48 hours after removal",remained higher than controls
same,MMP1 expression versus untreated cells after treatment removal,"MMP-1; 100 μg/ml for 48 hours, then another 24 hours after removal",remained significantly higher
same,lasting effect on expression of MMP-1 relative to Kyn,"MMP-1; 100 μg/ml for 48 hours, then removal",longer lasting effect
same,MMP1 expression,"MMP-1; 100 μg/ml, at 48 hours after treatment",marked increase
same,effect on splenocyte proliferation compared with other metabolites,splenocytes,less effect
same,reduction in conA-induced splenocyte proliferation,splenocytes; after 96 hours,~5 fold
COc1cccc(-c2cc(=O)c3ccccc3o2)c1N [PD98059],effect on kynurenine-stimulated MMP-1 expression,"[1]; various concentration of PD98059, dose-dependent",effectively prevented
O=C(O)c1cc(O)c2cccc(O)c2n1 [xanthurenic acid],expression of type 1 procollagen,type 1 procollagen,effective at inhibiting
same,MMP-3 induction (general statement),MMP-3,induce
same,MMP-1 induction (general statement),MMP-1,induce
Nc1ccccc1C(=O)C[C@H](N)C(=O)O [L-kynurenine],fibronectin expression (mRNA),fibronectin,capable of down-regulating
same,activity on MMP-1 expression compared with the other isoforms,"MMP-1; 50 μg/ml, 48 hours",more activity compared to other two isoforms
same,MMP-1 expression,MMP-1; [2],increase
same,reduction in conA-induced splenocyte proliferation,splenocytes; after 48 hours,about 2 fold
same,reduction in conA-induced splenocyte proliferation,splenocytes; after 96 hours,~5 fold
Nc1ccccc1C(=O)C[C@@H](N)C(=O)O [D-kynurenine],MMP-1 expression,MMP-1; [2],increase
same,reduction in conA-induced splenocyte proliferation,splenocytes; after 48 hours,about 2 fold
same,reduction in conA-induced splenocyte proliferation,splenocytes; after 96 hours,~5 fold
